{"source": "the supplement of paper PMC10307832", "experiment_in_all_cases": "relative viability (nuclei count vs DMSO), 5 days (fraction); higher = more cells survive", "key": {"NCI-H1651": {"tested_on": "NCI-H1651", "how_it_was_run": "(§1)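 Cells from lung cancer lines were seeded into 1536-well plates and, one day later, dosed by pin tool. Treatments were either a single drug or a fixed dose of an anchor drug with five library-drug doses (not always all listed) in √10 steps. After 5 days, nuclei were stained in a one-step fixation (final 0.05% Triton X-100, 1% formaldehyde, 1 ug/ml Hoechst) and counted on 4× images, and relative viability is the treated-to-vehicle nuclei ratio, as the median of duplicate plates.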"}, "NCI-H661": {"tested_on": "NCI-H661", "how_it_was_run": "as §1"}, "NCI-H1915": {"tested_on": "NCI-H1915", "how_it_was_run": "as §1"}, "NCI-H2228": {"tested_on": "NCI-H2228", "how_it_was_run": "as §1"}, "NCI-H2347": {"tested_on": "NCI-H2347", "how_it_was_run": "as §1"}, "NCI-H2087": {"tested_on": "NCI-H2087", "how_it_was_run": "as §1"}, "NCI-H1944": {"tested_on": "NCI-H1944", "how_it_was_run": "as §1"}, "H3255": {"tested_on": "H3255", "how_it_was_run": "as §1"}, "NCI-H1437": {"tested_on": "NCI-H1437", "how_it_was_run": "as §1"}, "EMC-BAC-2": {"tested_on": "EMC-BAC-2", "how_it_was_run": "as §1"}, "NCI-H2085": {"tested_on": "NCI-H2085", "how_it_was_run": "as §1"}, "CAL-12T": {"tested_on": "CAL-12T", "how_it_was_run": "as §1"}, "NCI-H1755": {"tested_on": "NCI-H1755", "how_it_was_run": "as §1"}, "LC-2-ad": {"tested_on": "LC-2-ad", "how_it_was_run": "as §1"}, "LK-2": {"tested_on": "LK-2", "how_it_was_run": "as §1"}, "PC-3 [JPC-3]": {"tested_on": "PC-3 [JPC-3]", "how_it_was_run": "as §1"}, "SK-LU-1": {"tested_on": "SK-LU-1", "how_it_was_run": "as §1"}, "COR-L 105": {"tested_on": "COR-L 105", "how_it_was_run": "as §1"}}}
{"compound": "COCC1(CO)C(=O)C2CCN1CC2", "note": "(configuration not stated) [PRIMA-1MET] + C[C@@H](Oc1cc(-c2cnn(C3CCNCC3)c2)cnc1N)c1c(Cl)ccc(F)c1Cl [Crizotinib] (partner 1 µM)", "values": [{"measurement": "relative viability", "setting": "NCI-H1651; first compound 0.2 µM", "value": 0.991}, {"measurement": "relative viability", "setting": "NCI-H1651; first compound 0.6325 µM", "value": 0.788}, {"measurement": "relative viability", "setting": "NCI-H1651; first compound 2 µM", "value": 0.741}, {"measurement": "relative viability", "setting": "NCI-H1651; first compound 6.325 µM", "value": 0.955}, {"measurement": "relative viability", "setting": "NCI-H1651; first compound 20 µM", "value": 0.888}, {"measurement": "relative viability", "setting": "NCI-H661; first compound 0.2 µM", "value": 1.15}, {"measurement": "relative viability", "setting": "NCI-H661; first compound 6.325 µM", "value": 1.11}, {"measurement": "relative viability", "setting": "NCI-H661; first compound 20 µM", "value": 0.999}, {"measurement": "relative viability", "setting": "NCI-H1915; first compound 0.2 µM", "value": 0.975}, {"measurement": "relative viability", "setting": "NCI-H1915; first compound 0.6325 µM", "value": 0.703}, {"measurement": "relative viability", "setting": "NCI-H1915; first compound 2 µM", "value": 0.794}, {"measurement": "relative viability", "setting": "NCI-H1915; first compound 6.325 µM", "value": 0.912}, {"measurement": "relative viability", "setting": "NCI-H1915; first compound 20 µM", "value": 0.852}, {"measurement": "relative viability", "setting": "NCI-H2228; first compound 0.2 µM", "value": 0.414}, {"measurement": "relative viability", "setting": "NCI-H2228; first compound 0.6325 µM", "value": 0.455}, {"measurement": "relative viability", "setting": "NCI-H2228; first compound 2 µM", "value": 0.444}, {"measurement": "relative viability", "setting": "NCI-H2228; first compound 6.325 µM", "value": 0.547}, {"measurement": "relative viability", "setting": "NCI-H2228; first compound 20 µM", "value": 0.0537}, {"measurement": "relative viability", "setting": "NCI-H2347; first compound 0.2 µM", "value": 0.705}, {"measurement": "relative viability", "setting": "NCI-H2347; first compound 0.6325 µM", "value": 0.667}, {"measurement": "relative viability", "setting": "NCI-H2347; first compound 2 µM", "value": 0.295}, {"measurement": "relative viability", "setting": "NCI-H2347; first compound 6.325 µM", "value": 0.771}, {"measurement": "relative viability", "setting": "NCI-H2347; first compound 20 µM", "value": 0.682}, {"measurement": "relative viability", "setting": "NCI-H2087; first compound 0.2 µM", "value": 0.949}, {"measurement": "relative viability", "setting": "NCI-H2087; first compound 0.6325 µM", "value": 0.751}, {"measurement": "relative viability", "setting": "NCI-H2087; first compound 2 µM", "value": 0.474}, {"measurement": "relative viability", "setting": "NCI-H2087; first compound 6.325 µM", "value": 0.794}, {"measurement": "relative viability", "setting": "NCI-H2087; first compound 20 µM", "value": 0.805}, {"measurement": "relative viability", "setting": "NCI-H1944; first compound 0.2 µM", "value": 1.36}, {"measurement": "relative viability", "setting": "NCI-H1944; first compound 0.6325 µM", "value": 0.817}, {"measurement": "relative viability", "setting": "NCI-H1944; first compound 6.325 µM", "value": 1.09}, {"measurement": "relative viability", "setting": "NCI-H1944; first compound 20 µM", "value": 1.06}, {"measurement": "relative viability", "setting": "H3255; first compound 0.2 µM", "value": 0.898}, {"measurement": "relative viability", "setting": "H3255; first compound 0.6325 µM", "value": 0.682}, {"measurement": "relative viability", "setting": "H3255; first compound 2 µM", "value": 0.77}, {"measurement": "relative viability", "setting": "H3255; first compound 6.325 µM", "value": 0.991}, {"measurement": "relative viability", "setting": "H3255; first compound 20 µM", "value": 0.898}, {"measurement": "relative viability", "setting": "NCI-H1437; first compound 0.2 µM", "value": 1.07}, {"measurement": "relative viability", "setting": "NCI-H1437; first compound 0.6325 µM", "value": 0.896}, {"measurement": "relative viability", "setting": "NCI-H1437; first compound 2 µM", "value": 0.9}, {"measurement": "relative viability", "setting": "NCI-H1437; first compound 6.325 µM", "value": 0.991}, {"measurement": "relative viability", "setting": "NCI-H1437; first compound 20 µM", "value": 0.862}, {"measurement": "relative viability", "setting": "EMC-BAC-2; first compound 0.2 µM", "value": 0.837}, {"measurement": "relative viability", "setting": "EMC-BAC-2; first compound 0.6325 µM", "value": 0.779}, {"measurement": "relative viability", "setting": "EMC-BAC-2; first compound 2 µM", "value": 0.666}, {"measurement": "relative viability", "setting": "EMC-BAC-2; first compound 6.325 µM", "value": 0.771}, {"measurement": "relative viability", "setting": "EMC-BAC-2; first compound 20 µM", "value": 0.793}, {"measurement": "relative viability", "setting": "NCI-H2085; first compound 0.2 µM", "value": 0.886}, {"measurement": "relative viability", "setting": "NCI-H2085; first compound 0.6325 µM", "value": 0.747}, {"measurement": "relative viability", "setting": "NCI-H2085; first compound 2 µM", "value": 0.692}, {"measurement": "relative viability", "setting": "NCI-H2085; first compound 6.325 µM", "value": 0.518}, {"measurement": "relative viability", "setting": "NCI-H2085; first compound 20 µM", "value": 0.155}, {"measurement": "relative viability", "setting": "CAL-12T; first compound 0.2 µM", "value": 0.788}, {"measurement": "relative viability", "setting": "CAL-12T; first compound 0.6325 µM", "value": 0.834}, {"measurement": "relative viability", "setting": "CAL-12T; first compound 2 µM", "value": 0.687}, {"measurement": "relative viability", "setting": "CAL-12T; first compound 6.325 µM", "value": 0.661}, {"measurement": "relative viability", "setting": "CAL-12T; first compound 20 µM", "value": 0.283}, {"measurement": "relative viability", "setting": "NCI-H1755; first compound 0.2 µM", "value": 0.996}, {"measurement": "relative viability", "setting": "NCI-H1755; first compound 0.6325 µM", "value": 0.825}, {"measurement": "relative viability", "setting": "NCI-H1755; first compound 2 µM", "value": 0.826}, {"measurement": "relative viability", "setting": "NCI-H1755; first compound 6.325 µM", "value": 0.915}, {"measurement": "relative viability", "setting": "NCI-H1755; first compound 20 µM", "value": 0.81}, {"measurement": "relative viability", "setting": "LC-2-ad; first compound 0.2 µM", "value": 0.484}, {"measurement": "relative viability", "setting": "LC-2-ad; first compound 0.6325 µM", "value": 0.434}, {"measurement": "relative viability", "setting": "LC-2-ad; first compound 2 µM", "value": 0.398}, {"measurement": "relative viability", "setting": "LC-2-ad; first compound 6.325 µM", "value": 0.39}, {"measurement": "relative viability", "setting": "LC-2-ad; first compound 20 µM", "value": 0.382}, {"measurement": "relative viability", "setting": "LK-2; first compound 0.2 µM", "value": 0.221}, {"measurement": "relative viability", "setting": "LK-2; first compound 0.6325 µM", "value": 0.182}, {"measurement": "relative viability", "setting": "LK-2; first compound 2 µM", "value": 0.22}, {"measurement": "relative viability", "setting": "LK-2; first compound 6.325 µM", "value": 0.255}, {"measurement": "relative viability", "setting": "LK-2; first compound 20 µM", "value": 0.18}, {"measurement": "relative viability", "setting": "PC-3 [JPC-3]; first compound 0.2 µM", "value": 0.995}, {"measurement": "relative viability", "setting": "PC-3 [JPC-3]; first compound 0.6325 µM", "value": 0.911}, {"measurement": "relative viability", "setting": "PC-3 [JPC-3]; first compound 2 µM", "value": 0.966}, {"measurement": "relative viability", "setting": "PC-3 [JPC-3]; first compound 6.325 µM", "value": 1.07}, {"measurement": "relative viability", "setting": "PC-3 [JPC-3]; first compound 20 µM", "value": 0.951}, {"measurement": "relative viability", "setting": "SK-LU-1; first compound 0.2 µM", "value": 0.93}, {"measurement": "relative viability", "setting": "SK-LU-1; first compound 0.6325 µM", "value": 0.729}, {"measurement": "relative viability", "setting": "SK-LU-1; first compound 2 µM", "value": 0.837}, {"measurement": "relative viability", "setting": "SK-LU-1; first compound 6.325 µM", "value": 1.09}, {"measurement": "relative viability", "setting": "SK-LU-1; first compound 20 µM", "value": 0.114}, {"measurement": "relative viability", "setting": "COR-L 105; first compound 0.2 µM", "value": 0.918}, {"measurement": "relative viability", "setting": "COR-L 105; first compound 0.6325 µM", "value": 0.664}, {"measurement": "relative viability", "setting": "COR-L 105; first compound 2 µM", "value": 0.74}, {"measurement": "relative viability", "setting": "COR-L 105; first compound 6.325 µM", "value": 0.782}, {"measurement": "relative viability", "setting": "COR-L 105; first compound 20 µM", "value": 0.254}]}
